Values quoted from earlier work as cited in US20130184316A1, “METHODS FOR DIAGNOSING AND TREATING CONCUSSIVE DISORDERS” (priority 2010, published 2013).

Legend:
[1] = test system: patients with idiopathic cerebellar ataxia; conditions: literature (Sprenger et al.); cited from earlier work
[2] = test system: patients with type-2 episodic ataxia (EA2); conditions: literature reports; cited from earlier work

| SMILES | Gravity-dependent symptoms associated with ataxic episodes [1] | Symptoms of EA2 (including downbeat nystagmus) [2] |
| --- | --- | --- |
| Nc1ccncc1N [3,4-DAP, 3,4-diamino pyridine] | effective in ameliorating some gravity-dependent symptoms | – |
| CC(=O)Nc1nnc(S(N)(=O)=O)s1 [acetazolamide] | – | attenuated |
